Results from patent US9695179B2, “Methods and compositions for inhibition of bromodomain-containing proteins” (CONVERGENE LLC, priority 2013, dated 2017).

How the values were obtained:
BRD4-BD1-BD2 = BRD4-BD1-BD2 (Homo sapiens (Human), UniProt O60885); assay: AlphaScreening assay, recombinant BRD4-BD1-BD2 and BET Ligand; format: binding; details: 2.5 nM BRD4-BD1-BD2, BET Ligand
Protocol: Assays were performed by AlphaScreening technology using a recombinant BRD4-BD1-BD2 and BET Ligand. The AlphaScreening signal from the assay was correlated with the amount of BET Ligand binding to the bromodomain. The compounds were diluted in 50% DMSO and 1 μl of the dilution was added to a 10 μl reaction so that the final concentration of DMSO is 5% in all of reactions. All reactions were conducted at room temperature. The 9 μl reaction mixture in BRD Assay Buffer contains 2.5 nM BRD4-BD1-BD2 and the indicated amount of the inhibitor, and the reaction mixture were incubated for 30 min followed by additional 30 min incubation after the addition of 1 μl of BET Ligand (Table 2.3.1). For the negative control (blank), 1 μl of the assay buffer was added instead of the BET Ligand. After the 30 min incubation with the BET Ligand, 20 μl of BRD Detection buffer containing 10 μg/ml Glutathione acceptor beads and 10 μg/ml Streptavidin Donor beads was added and the final 30 μl mixture was incubated for 50 min in a dark room.
AlphaScreening signal was measured using EnSpire Alpha 2390 Multilabel reader (Perkin Elmer). Binding experiments were performed in duplicate at each concentration. The AlphaScreening data were analyzed using the computer software, Graphpad Prism. In the absence of the compound, the AlphaScreening signal (At) in each data set was defined as 100% activity. In the absence of the BET Ligand, the AlphaScreening signal (Ab) in each data set was defined as 0% activity. The percent activity in the presence of each compound was calculated according to the following equation: % activity=[(A−Ab)/(At−Ab)]×100, where A=the AlphaScreening signal in the presence of the compound, Ab=the AlphaScreening signal in the absence of the BET Ligand, and At=the AlphaScreening signal in the absence of the compound. The percent inhibition was calculated for certain compounds according to the following equation: % inhibition=100−% activity.

[1] = tested on: MV4-11 acute myeloid leukemia cells; assay: In vitro cell viability (AlamarBlue), MV4-11; format: cell-based; details: Homo sapiens, MV4-11 cells, 72-hour incubation, read-out: In Vitro Cell Viability (IC50) MV4-11 Cells (AML)
Protocol: MV4-11 acute myeloid leukemia cells (American Type Culture Collection, Manassas, Va.) were added to 96-well clear bottom assay plates containing RPMI-1640 medium supplemented with 10% fetal bovine serum (FBS) at approximately 30,000 cells/well and incubated for 24 hours at 37° C. with 5% CO2 and 95% humidity. Control wells containing no cells were included to measure background fluorescence signal. Test compounds were dissolved at […] and diluted two-fold in DMSO to produce a working stock of compound solutions. Aliquots of the working stock solutions were subsequently diluted 100-fold in basal RPMI-1640 medium which was then further diluted 10-fold to the assay plate containing the cells to provide 10 test concentrations ranging from 0.04 μM-20 μM. Following a 72-hour incubation period, viability of the cells was determined by the AlamarBlue® assay (Life Technologies, Carlsbad, Calif.) following the manufacturer's protocol. Prior to generation of dose response curves, the data were background subtracted using the no cell control values (mean+/−standard deviation) and fluorescence values versus Log10 concentration of test compounds were plotted using GraphPad Prism. The resulting sigmoidal curve was then fit to the graph and IC50 values were calculated using a 4 parameter (4PL) algorithm using the following equation: 4(PL)F(x)=(A−D)/(1+(x/c)^B+D, where A=lower asymptote (baseline response), D=upper asymptote (maximum response), C=drug concentration that provokes a response halfway between A and D, B=slope of the curve. The results for selected compounds are set forth in Table 7.

human BRD4 protein = human BRD4 protein (Homo sapiens (Human), UniProt O60885); assay: AlphaScreen assay, BRD4 (bromodomain 1 and 2) with histone H4 peptide; format: binding; details: for IC50: 25 nM BRD4, histone H4 peptide, 8 concentrations (10 nM-10 μM), read-out: BRD4-BD1-BD2 IC50; for BRD4-BD1-BD2 % Inhibition: test compounds assayed at 10 μM or 31.6 μM for screening
Protocol: The interactions between test compounds and BRD4 protein containing both bromodomain 1 and bromodomain 2 were measured with human BRD4 protein with N-terminal His tag (BPS Bioscience, San Diego, Calif.) using AlphaScreen® assay at room temperature. A 9 μl reaction mixture in BRD Assay Buffer (BPS Bioscience) containing 25 nM BRD4 and test compounds at various concentrations were incubated for 30 minutes followed by additional 30-minute incubation with 1 μl of 20 μM histone H4 peptide (residue 1-21) in the presence of 5% DMSO. Test compounds (see Table 4) were assayed at 10 μM or 31.6 μM for screening purpose, while 8 different concentrations (10 nM-10 μM) were used for IC50 measurements. After the incubation, 20 μl of BRD Detection Buffer (BPS Bioscience) containing 10 μg/ml Glutathione Acceptor beads and 10 μg/ml Streptavidin Donor beads (PerkinElmer, Waltham, Mass.) was added and the mixture was incubated for 50 minutes in darkroom. Binding measurements were taken in duplicate at each concentration using EnSpire® Alpha Multimode Plate Reader Model 2390 (PerkinElmer). The AlphaScreen data were analyzed using Graphpad Prism (La Jolla, Calif.). In the absence of the compound, the AlphaScreen signal (At) in each data set was defined as 100% activity. In the absence of the histone H4 peptide ligand, the AlphaScreen signal (Ab) in each data set was defined as 0% activity. The percent activity in the presence of each compound was calculated according to the following equation: % activity=[(A−Ab)/(At−Ab)]×100, where A=the AlphaScreen signal in the presence of compound; Ab=the AlphaScreen signal in the absence of the histone peptide ligand; and At=the AlphaScreen signal in the absence of the compound. The percent inhibition was calculated according to the following equation: % inhibition=100−% activity.

| SMILES | IC50 (human BRD4 protein) [µM] | BRD4-BD1-BD2 % Inhibition (human BRD4 protein) [%] | other results |
| --- | --- | --- | --- |
| C/C(=C\C(=O)c1c(-c2ccccc2)c2cc(Cl)ccc2[nH]c1=O)c1c(F)cccc1Cl |  |  | inhibition at 10 µM (BRD4-BD1-BD2): 50% |
| Cc1noc(C)c1-c1ccc2[nH]c(=O)cc(O)c2c1 |  |  | inhibition at 10 µM (BRD4-BD1-BD2): 51% |
| CCN(CC)C(=O)Sc1c(-c2ccccc2)c2cc(OC)c(-c3c(C)noc3C)cc2[nH]c1=O |  |  | inhibition at 10 µM (BRD4-BD1-BD2): 65% |
| Cc1noc(C)c1-c1ccc2c(c1)c(-c1ccccc1)cc(=O)n2Cc1ccccc1 |  |  | inhibition at 10 µM (BRD4-BD1-BD2): 74% |
| Cc1noc(C)c1-c1ccc2[nH]c(=O)cc(-c3ccccc3)c2c1 |  |  | inhibition at 10 µM (BRD4-BD1-BD2): 82% |
| Cc1noc(C)c1-c1ccc2c(-c3ccccc3)cc(=O)[nH]c2c1 |  |  | inhibition at 10 µM (BRD4-BD1-BD2): 85% |
| Cc1noc(C)c1-c1ccc2[nH]c(=O)cc(NCc3ccccc3)c2c1 |  |  | inhibition at 10 µM (BRD4-BD1-BD2): 99% |
| O=C(/C=C/c1cccs1)c1c(-c2ccccc2)c2cc(Cl)ccc2[nH]c1=O [Compound 7, 6-chloro-4-phenyl-3-(3-(thiophen-2-yl)acryloyl)quinolin-2(1H)-one] |  |  | IC50 [1]: 2.3 µM |
| CN(C)c1ccc(/C=C/C(=O)c2c(-c3ccccc3)c3cc(Cl)ccc3[nH]c2=O)cc1 [Compound 8, 6-chloro-3-(3-(4-(dimethylamino)phenyl)acryloyl)-4-phenylquinolin-2(1H)-one] |  |  | IC50 [1]: 10.3 µM |
| O=C(/C=C/c1ccc2c(c1)OCCO2)c1c(-c2ccccc2)c2cc(Br)ccc2[nH]c1=O [Compound 9, 6-bromo-3-(3-(2,3-dihydrobenzo[b][1,4]dioxin-6-yl)acryloyl)-4-phenylquinolin-2(1H)-one] |  |  | IC50 [1]: 5.52 µM |
| O=C(/C=C/c1c(F)cccc1Cl)c1c(-c2ccncc2)c2cc(Cl)ccc2[nH]c1=O [Compound 15, 6-chloro-3-(3-(2-chloro-6-fluorophenyl)acryloyl)-4-(pyridin-4-yl)quinolin-2(1H)-one] |  |  | IC50 [1]: 1.18 µM |
| Cc1cncc(F)c1/C=C/C(=O)c1c(-c2cccnc2)c2cc(Cl)ccc2[nH]c1=O [Compound 16, 6-chloro-3-(3-(3-fluoro-5-methylpyridin-4-yl)acryloyl)-4-(pyridin-3-yl)quinolin-2(1H)-one] |  |  | IC50 [1]: 0.4 µM |
| Cc1nc(-c2c(N3CCCCC3)c3cc(Cl)ccc3[nH]c2=O)co1 [Compound 21] |  |  | IC50 [1]: 8.6 µM |
| Cc1nc(-c2c(N3CCCC3)c3cc(Cl)ccc3[nH]c2=O)co1 [Compound 22] |  |  | IC50 [1]: 1.8 µM |
| O=C(/C=C/c1ccccc1)c1c(-c2ccccc2)c2cc(Br)ccc2[nH]c1=O [Compound 81] |  |  | IC50 [1]: 3 µM |
| COc1ccc(Cn2c(=O)c(-c3coc(C)n3)c(OS(=O)(=O)c3ccccc3)c3cc(Cl)ccc32)cc1 [Compound 84] | 0.372 | 98 |  |
| COc1ccc(Cn2c(=O)c(-c3coc(C)n3)c(OS(=O)(=O)c3ccc(Cl)cc3)c3cc(Cl)ccc32)cc1 [Compound 86] | 0.67 | 99 |  |

| SMILES | IC50 (human BRD4 protein) [µM] | BRD4-BD1-BD2 % Inhibition (human BRD4 protein) [%] | other results |
| --- | --- | --- | --- |
| COc1ccc(Cn2c(=O)c(-c3coc(C)n3)c(OS(=O)(=O)c3ccc4ccccc4c3)c3cc(Cl)ccc32)cc1 [Compound 87] | 0.139 | 99 |  |
| COc1ccc(Cn2c(=O)c(-c3coc(C)n3)c(OS(=O)(=O)c3cccc4cccnc34)c3cc(Cl)ccc32)cc1 [Compound 88] | 0.864 | 98 |  |
| Cc1noc(C)c1-c1ccc2[nH]c(=O)c(C(=O)/C=C/c3ccccc3)c(-c3cccnc3)c2c1 [Compound 90] | 11.2 | 62 |  |
| C=CCn1c(Sc2c(-c3ccccc3)c3cc(Cl)ccc3[nH]c2=O)nnc1-c1cccs1 [Compound 97] | 5.8 | 59 |  |
| COc1ccc(-c2cc(=O)[nH]c(Sc3c(-c4ccccc4)c4cc(Cl)ccc4[nH]c3=O)n2)cc1 [Compound 98] | 6.7 | 64 |  |
| O=c1[nH]c2ccc(Cl)cc2c(-c2ccccc2)c1SC(=S)N1CCOCC1 [Compound 121] | 7.3 | 68 |  |
| O=c1[nH]c2cc(Cl)ccc2c(-c2ccccc2)c1Sc1nc2ccccc2s1 [Compound 124] | 17.3 | 50 |  |
| CCN(CC)CCCNC(=O)C1CCCN(c2c(-c3ccccc3)c3cc(Cl)ccc3[nH]c2=O)C1 (centres unmarked) [Compound 127] |  |  | IC50 [1]: 5.45 µM |
| CNC(=S)N1N=C(c2c(-c3ccccc3)c3cc(Cl)ccc3[nH]c2=O)CC1c1ccccc1 (centres unmarked) [Compound 128] | 16.3 | 64 |  |
| Cc1ccc(-c2nnc(Sc3c(-c4ccccc4)c4cc(Cl)ccc4[nH]c3=O)n2N)cc1 [Compound 132] | 3.7 | 92 |  |
| COc1ccc(OC)c(NCc2c(OC)ccc3ccccc23)c1 [Compound 143] |  | 99 |  |
| O=c1[nH]c2ccc(Br)cc2c(-c2ccccc2)c1-c1cc(-c2ccccc2)[nH]c(=S)n1 [Compound 144] | 0.049 | >90 |  |
| O=c1[nH]c2ccc(Cl)cc2c(-c2ccccc2)c1-c1cc(-c2ccccc2)[nH]c(=S)n1 [Compound 145] | 1.44 | 72 |  |
| Cc1noc(C)c1-c1ccc2[nH]c(=O)c(C(=O)/C=C/c3ccccc3)c(-c3cccnc3)c2c1 [drawing 644] |  |  | inhibition at 10 µM (BRD4-BD1-BD2): 62% |
| Cc1ccc(-c2nnc(Sc3c(-c4ccccc4)c4cc(Cl)ccc4[nH]c3=O)n2/N=C/c2ccccc2)cc1 [drawing 646] |  |  | inhibition at 10 µM (BRD4-BD1-BD2): 70% |
| Cc1ccc(-c2nnc(Sc3c(-c4ccccc4)c4cc(Cl)ccc4[nH]c3=O)n2/N=C/c2ccccc2)cc1 [drawing 647] |  |  | % inhibition at 10 μM (BRD4-BD1-BD2): 71% |

Continued, in another order:

| IC50 (human BRD4 protein) [µM] | BRD4-BD1-BD2 % Inhibition (human BRD4 protein) [%] | SMILES | other results |
| --- | --- | --- | --- |
| 2.43 | 87 | O=C(/C=C/c1ccccc1)c1c(-c2ccccc2)c2cc(Cl)ccc2[nH]c1=O [Compound 1] | IC50 [1]: 0.11 µM |
| 0.442 | 99 | COc1ccc(Cn2c(=O)c(-c3coc(C)n3)c(OS(=O)(=O)c3ccc(C)cc3)c3cc(Cl)ccc32)cc1 [Compound 83] |  |
| 0.876 | 99 | COc1ccc(Cn2c(=O)c(-c3coc(C)n3)c(OS(=O)(=O)c3ccc(F)cc3)c3cc(Cl)ccc32)cc1 [Compound 85] |  |
| 0.586 | 99 | COc1ccc(Cn2c(=O)c(-c3coc(C)n3)c(OS(=O)(=O)c3ccc(-c4ccccc4)cc3)c3cc(Cl)ccc32)cc1 [Compound 89] |  |
| 26.8 | 65 | CCN(CC)C(=S)Sc1c(-c2ccccc2)c2cc(Cl)ccc2[nH]c1=O [Compound 122] |  |
| 23.6 | 50 | CSc1nsc(Sc2c(-c3ccccc3)c3ccc(Cl)cc3[nH]c2=O)n1 [Compound 126] |  |
